pIC50, pKi: −log10 of the molar value. Where two headings read alike, the source gives them in different places.
Experiments:
[1] = target: T1, electric eel acetylcholinesterase (eeAChE) (Electrophorus electricus, UniProt O42275); test: Cholinesterase inhibition assay (Ellman's method), eeAChE; type: biochemical; settings: for pIC50: Ellman's method, 25 °C, pH 7.4
T1 construct: purchased Sigma-Aldrich, St. Louis, MO, USA
Procedure: (§1) Cholinesterase activity was measured by Ellman’s method adapted for microtiter plates, as previously described by Ristovski et al.. A complex and its ligands were first screened for the IC50 determination and then the inhibitory constants (Ki) were determined. A stock solution of C1 (1 mg/mL) was prepared in 5% v/v DMSO in deionized water, while a stock solution of chlorido analogue C1′ (1 mg/mL) was prepared in 100% methanol (MeOH). […] These solutions were added to the wells, and gradually diluted in 100 mM of potassium phosphate buffer (pH 7.4) to the final volume of 50 µL. Acetylthiocholine chloride and 5,5′-dithiobis-2-nitrobenzoic acid were then dissolved in the same buffer to the respective final concentrations of 1 and 0.5 mM and added (100 μL) to the wells of the microtiter plates. C1 was screened against a suite of ChEs of human and animal origin (eeAChE, hrAChE, hsBChE) (all three from Sigma-Aldrich, St. Louis, MO, USA), hrBChE (gift from the research group of Professor Stanislav Gobec, Faculty of Pharmacy, University of Ljubljana), and csBChE. All enzymes were dissolved in the 100 mM potassium phosphate buffer (pH 7.4) to 0.0075 U/mL. Fifty μL of each ChE was added to start the reactions, which were followed spectrophotometrically at 405 nm and 25 °C for 5 min using a kinetic microplate reader (Dynex Technologies Inc., Chantilly, VA, USA). The blank reactions without the inhibitors were run with the appropriate dilutions of the solvents, in which the tested compound and positive control were initially diluted (5% aqueous DMSO or 100% MeOH), and the readings were corrected according to the appropriate blanks. […] Each measurement was repeated at least three times. Data were analyzed using OriginPro software (OriginPro 2020, OriginLab Corporation, Northampton, MA, USA).

[2] = target: T2, human recombinant acetylcholinesterase (hrAChE) (Homo sapiens, UniProt P22303); test: Cholinesterase inhibition assay (Ellman's method), hrAChE; type: biochemical; settings: for pIC50: Ellman's method, 25 °C, pH 7.4
T2 construct: purchased Sigma-Aldrich, St. Louis, MO, USA
Procedure: as §1

[3] = target: T3, horse serum butyrylcholinesterase (hsBChE) (Equus caballus, UniProt P81908); test: Cholinesterase inhibition assay (Ellman's method), hsBChE; type: biochemical; settings: for pIC50: Ellman's method, 25 °C, pH 7.4
T3 construct: BChE derived from horse serum; purchased Sigma-Aldrich, St. Louis, MO, USA; host or cells: horse serum
Procedure: as §1

[4] = target: T4, human recombinant butyrylcholinesterase (hrBChE) (Homo sapiens, UniProt P06276); test: Cholinesterase inhibition assay (Ellman's method), hrBChE; type: biochemical; settings: for pIC50: Ellman's method, 25 °C, pH 7.4
T4 construct: gift from the research group of Professor Stanislav Gobec, Faculty of Pharmacy, University of Ljubljana
Procedure: as §1

[5] = target: canine serum butyrylcholinesterase (csBChE) (Canis lupus familiaris, UniProt A0A8I3PBA0); test: Cholinesterase inhibition assay (Ellman's method), csBChE; type: biochemical; settings: for pIC50: Ellman's method, 25 °C, pH 7.4
Procedure: as §1

[6] = target: T3, horse serum butyrylcholinesterase (hsBChE); test: Cholinesterase inhibition assay (Ellman's method), hsBChE; type: biochemical; settings: substrate acetylthiocholine 0.125, 0.25, 0.5 mM
[7] = tested on: isolated mouse nerve-hemidiaphragm preparation; test: Muscle contraction recordings on isolated hemidiaphragm
Procedure: (§2) Mice were sacrificed by cervical dislocation and immediate exsanguination. After dissection of the diaphragm muscle with both phrenic nerves, the diaphragm muscle was cut into two hemidiaphragms. Each hemidiaphragm was maintained in oxygenated standard Krebs-Ringer solution (154 mM NaCl, 5 mM KCl, 2 mM CaCl2, 1 mM MgCl2, 5 mM HEPES, and 11 mM D-glucose; pH 7.4). Just prior to experiments, C1 was dissolved in a solution of 2.5% DMSO in deionized water at a stock concentration of 2 mg/mL. The final concentration of DMSO in the organ bath was always 0.104% v/v. All experiments were performed at room temperature (22–24 °C).
The hemidiaphragm with phrenic nerve was pinned on its lateral side into a silicon-coated organ bath containing oxygenated Krebs-Ringer (K-R) solution. Then, the tendon part was linked to the lever of an isometric mechano-electrical transducer (Grass Instruments, West Warwick, RI, USA) via a stainless-steel hook and silk thread. The equal stimulus protocol, equipment, and software were used as previously described by Ristovski et al.. The concentrations of C1 studied were 30, 60, 90, and 120 μM and their effect on muscle contraction was continuously measured during 60 min after application. The muscle twitch and tetanic contraction blockade produced by C1 was shown as the percentage of the initial maximal response.

[8] = tested on: mouse hemidiaphragm muscle fibers; settings: 120 µM; for resting membrane potential (rVm), median: end-plate regions of surface fibers
Procedure: as §2
Electrophysiological recordings on hemidiaphragm muscle fibers were performed using conventional microelectrode techniques. For measurements of rVm, EPP, and MEPP, hemidiaphragm preparations were immersed in oxygenated K-R solution containing 1.6 μM of μ-conotoxin GIIIB (Bachem, Bubendorf, Switzerland) and incubated for 30 min. The same stimulus protocol, equipment, and software were used to perform membrane potential recordings, as previously described by Ristovski et al.. Only the highest concentration of C1 (120 μM) was studied. The recordings were performed before applying C1, 30 and 60 min after the compound application, and 15 min after the compound wash-out. MEPP and EPP amplitudes were normalized to a rVm of −70 mV using the formula: Vc = Vo (−70)/rVm, where Vc is the normalized amplitude of MEPPs and EPPs, and Vo is their recorded amplitude.

[9] = tested on: AChE in mouse diaphragm muscle; settings: 3 µM; cited from earlier work
[10] = target: T1, electric eel acetylcholinesterase (eeAChE); settings: previously reported; ref Ristovski et al. [9]; cited from earlier work
[11] = target: T2, human recombinant acetylcholinesterase (hrAChE); settings: previously reported; ref Ristovski et al. [9]; cited from earlier work
[12] = target: T3, horse serum butyrylcholinesterase (hsBChE); settings: previously reported; ref Ristovski et al. [9]; cited from earlier work

T2 sequence (P22303 32-614): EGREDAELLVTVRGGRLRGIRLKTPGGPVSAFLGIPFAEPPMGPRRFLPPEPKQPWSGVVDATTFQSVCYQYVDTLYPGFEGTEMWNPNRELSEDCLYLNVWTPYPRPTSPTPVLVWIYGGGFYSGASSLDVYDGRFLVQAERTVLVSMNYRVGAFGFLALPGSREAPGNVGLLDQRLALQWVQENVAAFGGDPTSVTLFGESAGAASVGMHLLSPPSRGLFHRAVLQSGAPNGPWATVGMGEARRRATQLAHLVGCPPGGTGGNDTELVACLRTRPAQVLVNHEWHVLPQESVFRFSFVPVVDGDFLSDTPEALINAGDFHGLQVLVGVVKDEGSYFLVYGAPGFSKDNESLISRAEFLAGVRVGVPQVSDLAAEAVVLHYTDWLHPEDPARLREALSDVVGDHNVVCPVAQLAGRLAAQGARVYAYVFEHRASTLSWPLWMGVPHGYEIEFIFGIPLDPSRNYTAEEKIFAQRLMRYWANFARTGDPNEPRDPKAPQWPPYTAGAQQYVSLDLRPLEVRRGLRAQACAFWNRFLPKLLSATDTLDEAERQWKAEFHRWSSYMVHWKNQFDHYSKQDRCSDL
T1 sequence (O42275 24-633): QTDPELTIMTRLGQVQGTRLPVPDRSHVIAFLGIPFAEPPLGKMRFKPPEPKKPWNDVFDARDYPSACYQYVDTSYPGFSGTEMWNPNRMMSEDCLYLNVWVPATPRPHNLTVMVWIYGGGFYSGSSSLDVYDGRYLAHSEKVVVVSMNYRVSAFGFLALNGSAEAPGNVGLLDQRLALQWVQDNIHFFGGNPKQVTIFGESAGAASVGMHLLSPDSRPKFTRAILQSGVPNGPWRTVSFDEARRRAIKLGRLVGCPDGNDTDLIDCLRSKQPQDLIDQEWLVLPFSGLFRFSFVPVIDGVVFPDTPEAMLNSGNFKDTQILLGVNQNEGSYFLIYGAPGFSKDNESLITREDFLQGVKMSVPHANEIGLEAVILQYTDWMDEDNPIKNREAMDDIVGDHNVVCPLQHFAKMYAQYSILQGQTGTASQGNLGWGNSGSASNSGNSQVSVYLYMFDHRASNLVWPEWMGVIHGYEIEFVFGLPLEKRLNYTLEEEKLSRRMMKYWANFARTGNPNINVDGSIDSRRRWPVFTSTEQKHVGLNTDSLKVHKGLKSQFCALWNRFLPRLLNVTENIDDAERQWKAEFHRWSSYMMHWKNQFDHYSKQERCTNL
T4 sequence (P06276 29-602): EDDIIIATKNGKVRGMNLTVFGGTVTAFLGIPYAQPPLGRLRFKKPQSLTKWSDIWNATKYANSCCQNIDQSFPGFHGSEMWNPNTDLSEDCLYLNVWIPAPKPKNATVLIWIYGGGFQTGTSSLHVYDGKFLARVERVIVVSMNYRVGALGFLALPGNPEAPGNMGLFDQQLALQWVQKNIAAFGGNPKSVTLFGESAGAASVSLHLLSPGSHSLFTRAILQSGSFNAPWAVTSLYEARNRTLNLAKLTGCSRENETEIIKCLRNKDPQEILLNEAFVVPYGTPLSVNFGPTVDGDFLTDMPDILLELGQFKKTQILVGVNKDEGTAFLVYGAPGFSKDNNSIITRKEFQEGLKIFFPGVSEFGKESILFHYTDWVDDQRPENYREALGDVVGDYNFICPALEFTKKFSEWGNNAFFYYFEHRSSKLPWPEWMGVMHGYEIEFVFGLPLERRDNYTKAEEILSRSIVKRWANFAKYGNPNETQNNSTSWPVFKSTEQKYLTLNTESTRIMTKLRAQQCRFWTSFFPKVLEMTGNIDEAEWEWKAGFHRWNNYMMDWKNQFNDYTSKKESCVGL
Chain of canine serum butyrylcholinesterase (csBChE) (A0A8I3PBA0 29-602): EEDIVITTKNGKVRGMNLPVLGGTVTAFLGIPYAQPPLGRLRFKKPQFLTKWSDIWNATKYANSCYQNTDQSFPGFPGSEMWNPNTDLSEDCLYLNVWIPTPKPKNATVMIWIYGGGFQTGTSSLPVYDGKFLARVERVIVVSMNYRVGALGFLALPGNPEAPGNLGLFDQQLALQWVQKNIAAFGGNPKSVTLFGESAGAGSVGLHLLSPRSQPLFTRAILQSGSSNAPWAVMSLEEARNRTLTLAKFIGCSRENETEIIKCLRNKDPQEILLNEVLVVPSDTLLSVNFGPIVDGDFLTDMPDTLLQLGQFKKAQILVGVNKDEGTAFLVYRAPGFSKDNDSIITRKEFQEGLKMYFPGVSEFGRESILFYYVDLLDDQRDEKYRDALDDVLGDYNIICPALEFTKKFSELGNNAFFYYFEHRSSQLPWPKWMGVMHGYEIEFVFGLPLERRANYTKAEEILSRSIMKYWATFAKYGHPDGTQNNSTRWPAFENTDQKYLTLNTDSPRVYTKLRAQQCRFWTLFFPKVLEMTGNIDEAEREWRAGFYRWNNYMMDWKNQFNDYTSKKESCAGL
T3 sequence (P81908 whole entry): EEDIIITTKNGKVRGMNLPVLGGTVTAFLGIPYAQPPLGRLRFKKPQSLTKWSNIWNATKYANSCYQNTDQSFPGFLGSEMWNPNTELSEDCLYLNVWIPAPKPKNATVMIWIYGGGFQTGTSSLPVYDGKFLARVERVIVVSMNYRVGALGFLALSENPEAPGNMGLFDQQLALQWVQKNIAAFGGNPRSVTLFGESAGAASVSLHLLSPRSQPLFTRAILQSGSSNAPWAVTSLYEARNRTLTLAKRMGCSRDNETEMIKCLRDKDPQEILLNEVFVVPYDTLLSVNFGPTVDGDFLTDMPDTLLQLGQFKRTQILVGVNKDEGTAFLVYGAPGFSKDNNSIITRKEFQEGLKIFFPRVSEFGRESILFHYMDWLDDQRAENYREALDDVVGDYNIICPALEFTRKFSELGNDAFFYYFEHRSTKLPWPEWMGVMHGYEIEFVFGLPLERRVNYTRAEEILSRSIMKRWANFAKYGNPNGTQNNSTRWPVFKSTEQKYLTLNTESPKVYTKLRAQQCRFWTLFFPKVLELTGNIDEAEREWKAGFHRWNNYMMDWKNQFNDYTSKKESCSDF

Compound: COc1cccn(O)c1=S [Compound L1, 1-hydroxy-3-methoxypyridine-2(1H)-thion]
- inhibition of eeAChE (in words) [1]: did not inhibit
- pIC50 [1]: < 3.74
- inhibition of hrAChE (in words) [2]: did not inhibit
- pIC50 [2]: < 3.74
- inhibition of hsBChE (in words) [3]: did not inhibit
- pIC50 [3]: < 3.74
- inhibition of hrBChE (in words) [4]: did not inhibit
- pIC50 [4]: < 3.74
- inhibition of csBChE (in words) [5]: did not inhibit
- pIC50 [5]: < 3.74

Compound: [(η^6-p-Cymene)Ru(II)(1-hydroxy-3-methoxypyridine-2(1H)-thionato)Cl] [C1′]
- inhibition of eeAChE (in words) [1]: low micromolar range
- type of inhibition of eeAChE [1]: reversible competitive type
- pIC50 [1]: 5.12
- pKi ([1]; substrate 0.125, 0.25, 0.5 mM): 5.32
- inhibition of hrAChE (in words) [2]: low micromolar range
- type of inhibition of hrAChE [2]: reversible competitive type
- pIC50 [2]: 5.30
- pKi ([2]; substrate 0.125, 0.25, 0.5 mM): 5.27
- inhibition of hsBChE (in words) [3]: low micromolar range
- type of inhibition of hsBChE [3]: reversible competitive type
- pIC50 [3]: 5.63
- inhibition of hrBChE (in words) [4]: low micromolar range
- type of inhibition of hrBChE [4]: reversible competitive type
- pIC50 [4]: 5.89
- pKi ([4]; substrate 0.125, 0.25, 0.5 mM): 5.90
- inhibition of csBChE (in words) [5]: low micromolar range
- type of inhibition of csBChE [5]: reversible competitive type
- pIC50 [5]: 5.64
- pKi ([5]; substrate 0.125, 0.25, 0.5 mM): 5.52
- pKi [6]: 5.47

Compound: [(η^6-p-Cymene)Ru(II)(1-hydroxy-3-methoxypyridine-2(1H)-thionato)pta]PF6 [Compound C1]
- inhibition of eeAChE (in words) [1]: did not inhibit
- pIC50 [1]: < 3.74
- inhibition of hrAChE (in words) [2]: did not inhibit
- pIC50 [2]: < 3.74
- inhibition of hsBChE (in words) [3]: selectively inhibited
- type of inhibition of hsBChE [3]: reversible competitive type
- pIC50 [3]: 5.54
- pIC50 [4]: 3.84
- inhibition of hrBChE lower compared to hsBChE ([4]; ratio of IC50 hrBChE versus hsBChE): about 50 times
- pIC50 [5]: < 3.74
- inhibition of csBChE (in words) ([5]; concentrations (0–180 µM) tested): did not inhibit
- nerve-evoked single-twitch and tetanic contractions ([7]; 120 µM, 60 min exposure): not statistically significant increases
- effect on maximal amplitude of nerve-evoked and directly elicited single-twitch and tetanic contractions ([7]; 30, 60, 90 and 120 µM, 60 min exposure): no significant effect
- resting muscle tension ([7]; 30-120 µM, an increase would indicate a myotoxic effect): did not detect an increase
- resting membrane potential (rVm), median ([8]; 30 min after exposure): −66.13 mV
- resting membrane potential (rVm), median ([8]; 60 min after exposure): −66.63 mV
- effect on resting membrane potential (rVm) ([8]; after 30 and 60 min of exposure): no effect
- MEPPs frequency ([8]; within 60 min): without reducing
- amplitudes of EPPs ([8]; within 60 min): did not affect
- amplitudes of MEPPs ([8]; within 60 min): significantly decreased
- half-decay time of EPPs ([8]; within 60 min of exposure): shortened
- half-decay time of MEPPs ([8]; within 60 min of exposure): shortened
- pKi [6]: 5.88

Compound: CN(C)C(=O)Oc1cccc([N+](C)(C)C)c1 [Neostigmine, neostigmine methyl sulphate, reference compound]
- pIC50 [1]: 5.41
- pIC50 [3]: 4.20
- pIC50 [4]: 3.76
- pIC50 [5]: 4.55
- effect on nerve-evoked single-muscle and tetanic contraction ([7]; 3 µM, positive control): a slight increase in the amplitude of the nerve-evoked single-muscle contraction and a tetanic fade
- inhibition of AChE in mouse diaphragm muscle [9]: 96%

Compound: Cc1ccc(C(C)C)cc1.Cc1ccc(C(C)C)cc1.[Cl][Ru][Cl].[Cl][Ru][Cl] [Compound P1, dichloro(p-cymene)ruthenium(II) dimer]
- pIC50 [10]: < 3.74
- pIC50 [11]: < 3.74
- pIC50 [12]: 4.49
- pKi [12]: 4.63
